The text below walks through data of US20250215030A1, “STAT MODULATORS AND USES THEREOF” (Recludix Pharma, Inc., priority 2022, published 2025).

What is called IC50 is the concentration at which inhibition is half-maximal.

The target in test [1] is T1, Recombinant STAT3 protein (STAT3(G127-I722)) (Homo sapiens, UniProt P40763).
T1 construct: STAT3(G127-I722)
Nature of the test: STAT3 Fluorescence Polarization (FP) Assay. The settings on record: STAT3(G127-I722) 25 nM, probe 5-FAM-GpYLPQTV-NH2 2 nM, 45-minute incubation. The format is binding. The method in brief: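 STAT3(G127-I722) at 25 nM and 5-FAM-GpYLPQTV-NH2 probe at 2 nM in HEPES pH 7.4 buffer with NaCl, EDTA, Tween 20, DTT; 1% DMSO. FP read after 45 min at room temperature; IC50 by nonlinear regression of mP vs log concentration, binned A ≤100 nM to D >10 μM.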
In general terms: Polarisation of emitted light reports the rotation of a fluorescent probe.

For test [2], the target named is T2, Recombinant STAT6 protein (STAT6(W123-T658)) (Homo sapiens, UniProt P42226).
T2 construct: STAT6(W123-T658)
T2 sequence (P42226 123-658): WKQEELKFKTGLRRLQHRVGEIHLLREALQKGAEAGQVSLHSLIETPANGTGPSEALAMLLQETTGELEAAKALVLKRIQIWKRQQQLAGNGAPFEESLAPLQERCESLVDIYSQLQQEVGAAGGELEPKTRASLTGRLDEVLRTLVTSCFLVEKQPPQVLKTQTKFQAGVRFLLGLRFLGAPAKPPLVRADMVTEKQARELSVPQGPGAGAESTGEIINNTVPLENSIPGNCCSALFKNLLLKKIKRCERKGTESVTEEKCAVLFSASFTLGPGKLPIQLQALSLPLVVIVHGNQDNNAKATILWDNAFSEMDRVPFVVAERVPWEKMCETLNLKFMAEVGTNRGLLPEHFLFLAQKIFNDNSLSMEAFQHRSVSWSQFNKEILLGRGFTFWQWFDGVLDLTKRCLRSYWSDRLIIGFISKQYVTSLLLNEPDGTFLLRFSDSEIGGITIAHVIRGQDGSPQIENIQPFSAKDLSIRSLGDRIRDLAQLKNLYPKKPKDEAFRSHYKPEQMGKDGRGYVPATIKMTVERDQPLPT
Kind of test: STAT6 Fluorescence Polarization (FP) Assay. It counts as binding. As to conditions: STAT6(W123-T658) 250 nM, probe 5-FAM-ApYKPFQDLI-NH2 2 nM, 45-minute incubation. The method in brief: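 STAT6 (W123-T658) at 250 nM mixed with 2 nM 5-FAM-ApYKPFQDLI-NH2 probe in HEPES pH 7.4 buffer with DTT and Tween 20, 1% DMSO final. Polarization read after 45 min at room temperature; IC50 by nonlinear regression of mP versus log concentration, reported in bins A–D.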

T1 sequence (P40763 127-722, species assumed): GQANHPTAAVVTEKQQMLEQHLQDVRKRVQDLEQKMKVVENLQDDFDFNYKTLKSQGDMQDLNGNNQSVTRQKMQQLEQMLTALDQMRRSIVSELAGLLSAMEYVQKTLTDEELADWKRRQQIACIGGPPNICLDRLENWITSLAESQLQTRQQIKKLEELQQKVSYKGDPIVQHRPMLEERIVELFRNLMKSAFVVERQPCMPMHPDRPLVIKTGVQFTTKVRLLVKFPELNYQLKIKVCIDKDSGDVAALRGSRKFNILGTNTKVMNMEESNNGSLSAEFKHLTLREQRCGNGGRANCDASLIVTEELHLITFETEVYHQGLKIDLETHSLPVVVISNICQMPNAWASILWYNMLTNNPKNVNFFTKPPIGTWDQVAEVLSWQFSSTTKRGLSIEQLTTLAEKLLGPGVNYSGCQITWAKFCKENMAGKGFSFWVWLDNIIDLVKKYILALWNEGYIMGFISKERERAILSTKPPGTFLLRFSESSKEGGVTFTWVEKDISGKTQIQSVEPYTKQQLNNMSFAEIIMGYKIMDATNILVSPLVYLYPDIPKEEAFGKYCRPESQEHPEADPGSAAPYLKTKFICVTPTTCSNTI

With `O=C(N[C@H]1C[C@@H]2C[C@@H]2C[C@H]2CC[C@@H](C(=O)N3CCOc4ccccc43)N2C1=O)c1cc2cc(C(F)P(=O)(O)O)ccc2s1` (stereo partly drawn) [Example 372, ((2-(((3S,6S,7aS,8aR,9aR)-3-(3,4-dihydro-2H-benzo[b][1,4]oxazine-4-carbonyl)-5-oxodecahydro-1H-cyclopropa[d]pyrrolo[1,2-a]azocin-6-yl)carbamoyl)benzo[b]thiophen-5-yl)fluoromethyl)phosphonic acid], the results for the 50% inhibitory concentration (IC50) in test [1] and in test [2] were 1 to 10 µM and 3 to 30 µM, respectively.
The corresponding values for `O=C(N[C@H]1C[C@@H]2C[C@@H]2C[C@H]2CC[C@@H](C(=O)N[C@@H]3CCN(c4ccccc4)C3)N2C1=O)c1cc2cc(C(F)(F)P(=O)(O)O)ccc2s1` [Compound 52, (difluoro(2-(((3S,6S,7aS,8aR,9aR)-5-oxo-3-(((R)-1-phenylpyrrolidin-3-yl)carbamoyl)decahydro-1H-cyclopropa[d]pyrrolo[1,2-a]azocin-6-yl)carbamoyl)benzo[b]thiophen-5-yl)methyl)phosphonic acid] are 0.1 to 1 µM and 0.3 to 3 µM.
For `O=C(N[C@H]1C[C@@H]2C[C@@H]2C[C@H]2CC[C@@H](C(=O)N3CC(c4nocc4Br)C3)N2C1=O)c1cc2cc(C(F)P(=O)(O)O)ccc2s1` (stereo partly drawn) [Example 400, ((2-(((3S,6S,7aS,8aR,9aR)-3-(3-(4-bromoisoxazol-3-yl)azetidine-1-carbonyl)-5-oxodecahydro-1H-cyclopropa[d]pyrrolo[1,2-a]azocin-6-yl)carbamoyl)benzo[b]thiophen-5-yl)fluoromethyl)phosphonic acid] the same measures were 0.1 to 1 µM and 3 to 30 µM.
The corresponding values for `CC(=O)N1CC2(C1)CN(C(=O)[C@@H]1CC[C@@H]3C[C@H]4C[C@H]4C[C@H](NC(=O)c4cc5cc(C(F)(F)P(=O)(O)O)ccc5s4)C(=O)N31)C2` [Compound 40, ((2-(((3S,6S,7aS,8aR,9aR)-3-(6-acetyl-2,6-diazaspiro[3.3]heptane-2-carbonyl)-5-oxodecahydro-1H-cyclopropa[d]pyrrolo[1,2-a]azocin-6-yl)carbamoyl)benzo[b]thiophen-5-yl)difluoromethyl)phosphonic acid] are less than 0.1 µM and 0.3 to 3 µM.
For `Cc1nc(N2C[C@H](NC(=O)[C@@H]3CC[C@@H]4C[C@H]5C[C@H]5C[C@H](NC(=O)c5cc6cc(C(F)P(=O)(O)O)ccc6s5)C(=O)N43)[C@@H](F)C2)n[nH]1` (stereo partly drawn) [Example 366, (fluoro(2-(((3S,6S,7aS,8aR,9aR)-3-(((3S,4S)-4-fluoro-1-(5-methyl-1H-1,2,4-triazol-3-yl)pyrrolidin-3-yl)carbamoyl)-5-oxodecahydro-1H-cyclopropa[d]pyrrolo[1,2-a]azocin-6-yl)carbamoyl)benzo[b]thiophen-5-yl)methyl)phosphonic acid], the IC50 in test [1] fell in the range of 0.1 to 1 µM; in test [2] it was 3 to 30 µM.
`O=C(N[C@H]1C[C@@H]2C[C@@H]2C[C@H]2CC[C@@H](C(=O)N3CC(c4cn[nH]c4)C3)N2C1=O)c1cc2cc(C(F)(F)P(=O)(O)O)ccc2s1` [Example 288, ((2-(((3S,6S,7aS,8aR,9aR)-3-(3-(1H-pyrazol-4-yl)azetidine-1-carbonyl)-5-oxodecahydro-1H-cyclopropa[d]pyrrolo[1,2-a]azocin-6-yl)carbamoyl)benzo[b]thiophen-5-yl)difluoromethyl)phosphonic acid]: the half-maximal inhibitory concentration (IC50) is less than 0.1 µM in test [1] and 3 to 30 µM in test [2].
The corresponding values for `O=C(N[C@H]1C[C@@H]2C[C@@H]2C[C@H]2CC[C@@H](C(=O)N3CC(Cc4cccc(F)c4)C3)N2C1=O)c1cc2cc(CP(=O)(O)O)ccc2s1` [Example 349, ((2-(((3S,6S,7aS,8aR,9aR)-3-(3-(3-fluorobenzyl)azetidine-1-carbonyl)-5-oxodecahydro-1H-cyclopropa[d]pyrrolo[1,2-a]azocin-6-yl)carbamoyl)benzo[b]thiophen-5-yl)methyl)phosphonic acid] are 0.1 to 1 µM and 3 to 30 µM.
For `N#CC1(c2ccccn2)CN(C(=O)[C@@H]2CC[C@@H]3C[C@@H]4C[C@@H]4C[C@H](NC(=O)c4cc5cc([C@@H](F)P(=O)(O)O)ccc5s4)C(=O)N32)C1` (single isomer, unassigned) [Example 356] the same measures were less than 0.1 µM and 3 to 30 µM.
The corresponding values for `O=C(N[C@H]1C[C@H]2C[C@H]2C[C@H]2CC[C@@H](C(=O)N3CC(c4ncccn4)C3)N2C1=O)c1cc2cc(C(F)(F)P(=O)(O)O)ccc2s1` [Compound 80, (difluoro(2-(((3S,6S,7aR,8aS,9aR)-5-oxo-3-(3-(pyrimidin-2-yl)azetidine-1-carbonyl)decahydro-1H-cyclopropa[d]pyrrolo[1,2-a]azocin-6-yl)carbamoyl)benzo[b]thiophen-5-yl)methyl)phosphonic acid] are less than 0.1 µM and 3 to 30 µM.
For `O=C(N[C@H]1C[C@@H]2C[C@@H]2CC2CC[C@@H](C(=O)N3CC(c4cncnc4N4CCC4)C3)N2C1=O)c1cc2cc([C@H](F)P(=O)(O)O)ccc2s1` (single isomer, unassigned) [Example 402], the 50% inhibitory concentration (IC50) in test [1] is less than 0.1 µM; in test [2], 0.3 to 3 µM.
The corresponding values for `C[C@]12CC(NC(=O)c3cc4cc(C(F)(F)P(=O)(O)O)ccc4s3)C(=O)N3[C@H](CC[C@H]3C(=O)N3CC(c4cccnc4)C3)[C@H]1C2` (stereo partly drawn) [Compound 37, (difluoro(2-(((3S,6S,7aS,8aR,9aR)-7a-methyl-5-oxo-3-(3-(pyridin-3-yl)azetidine-1-carbonyl)decahydro-1H-cyclopropa[d]pyrrolo[1,2-a]azocin-6-yl)carbamoyl)benzo[b]thiophen-5-yl)methyl)phosphonic acid] are less than 0.1 µM and 3 to 30 µM.
The corresponding values for `CC(=O)N1CCC2(C1)CN(C(=O)[C@@H]1CC[C@@H]3C[C@H]4C[C@H]4C[C@H](NC(=O)c4cc5cc(C(F)(F)P(=O)(O)O)ccc5s4)C(=O)N31)C2` [Compound 92, ((2-(((35,6S,7aS,8aR,9aR)-3-(6-acetyl-2,6-diazaspiro[3.4]octane-2-carbonyl)-5-oxodecahydro-1H-cyclopropa[d]pyrrolo[1,2-a]azocin-6-yl)carbamoyl)benzo[b]thiophen-5-yl)difluoromethyl)phosphonic acid] are 0.1 to 1 µM and 3 to 30 µM.
`O=C(N[C@H]1C[C@H]2C[C@H]2C[C@H]2CC[C@@H](C(=O)N3CC(c4cnccc4O)C3)N2C1=O)c1cc2cc(CP(=O)(O)O)ccc2s1` [Example 294, ((2-(((3S,6S,7aR,8aS,9aR)-3-(3-(4-hydroxypyridin-3-yl)azetidine-1-carbonyl)-5-oxodecahydro-1H-cyclopropa[d]pyrrolo[1,2-a]azocin-6-yl)carbamoyl)benzo[b]thiophen-5-yl)methyl)phosphonic acid]: the IC50 in test [1] was less than 0.1 µM; in test [2] it was 3 to 30 µM.
For `CO[C@@H]1CCN(C(=O)C2CN(C(=O)[C@@H]3CC[C@@H]4C[C@H]5C[C@H]5C[C@H](NC(=O)c5cc6cc(C(F)(F)P(=O)(O)O)ccc6s5)C(=O)N43)C2)C1` [Compound 114, (difluoro(2-(((3S,6S,7aS,8aR,9aR)-3-(3-((R)-3-methoxypyrrolidine-1-carbonyl)azetidine-1-carbonyl)-5-oxodecahydro-1H-cyclopropa[d]pyrrolo[1,2-a]azocin-6-yl)carbamoyl)benzo[b]thiophen-5-yl)methyl)phosphonic acid] the same measures were less than 0.1 µM and 3 to 30 µM.
For `CCc1ccncc1C1CN(C(=O)[C@@H]2CC[C@@H]3C[C@@H]4C[C@@H]4C[C@H](NC(=O)c4cc5cc([C@@H](F)P(=O)(O)O)ccc5s4)C(=O)N32)C1` (single isomer, unassigned) [Example 357] the same measures were less than 0.1 µM and 3 to 30 µM.
For `O=C(N[C@H]1C[C@@H]2C[C@@H]2C[C@H]2CC[C@@H](C(=O)N3CC(c4cc(C(F)F)on4)C3)N2C1=O)c1cc2cc(C(F)P(=O)(O)O)ccc2s1` (stereo partly drawn) [Example 375, ((2-(((3S,6S,7aS,8aR,9aR)-3-(3-(5-(difluoromethyl)isoxazol-3-yl)azetidine-1-carbonyl)-5-oxodecahydro-1H-cyclopropa[d]pyrrolo[1,2-a]azocin-6-yl)carbamoyl)benzo[b]thiophen-5-yl)fluoromethyl)phosphonic acid] the same measures were 0.1 to 1 µM and 3 to 30 µM.
